# Data reported in patent US4529593A, “Use of gallium salts to treat disorders of calcium homeostasis” (Sloan-Kettering Institute for Cancer Research, priority 1984, dated 1985).
# Assays:
# [1] = tested on: bone turnover; assay: bone turnover in a patient with multiple myeloma and extensive bone destruction; format: in vivo; conditions: 200 mg/sq m/d×7 d infusion; for urine OH--Proline: previous 95.4; for urine Calcium: previous 618; for urine Phosphorus: previous 1630; for Urine Volume: previous 3640
# Protocol: Summary: Patients with bone metastasis suffer progressive erosion of bone which causes pain, immobilization and fractures. Clinically, bone metastases are evaluated by sequential x-rays over a period of months to years. Other measures have recently been employed to measure bone turnover in patients with both cancer and non-cancerous bone resorption. In general, increased bone turnover is associated with increased loss of calcium into the urine and with increased excretion of hydroxyproline ([…]). Measurements of these parameters have been used to assess whether a new drug affects bone resorption (Siris, E. S. et al, New Engl J Med 302:310, 1980). We recently measured these parameters in a patient with multiple myeloma and extensive bone destruction who received gallium nitrate (200 mg/sq m/d×7 d by infusion).
# [2] = tested on: calcium metabolism; assay: metabolic study of patients receiving gallium nitrate (calcium homeostasis); format: in vivo
# From the text: (§1) As with most anticancer drugs, gallium can potentially cause serious toxicity. The most serious side-effect being kidney damage. […] Furthermore, the anti bone-resorptive effects of gallium nitrate are achieved with less than 25-50% of the anticancer dose. Thus the method should retain safety and efficacy for prolonged periods of time.
# Experimental Results: Studies of calcium homeostasis require an assessment of multiple factors including dietary intake, excretion of calcium into urine and stool, and analysis of calcium mobilization from body stores (chiefly bone). Four patients who participated in a careful study of the effects of gallium nitrate upon calcium metabolism were thus assessed. Patients were hospitalized and received a diet of defined calcium, sodium, and fluid intake. Measurements of calcium excretion into urine and stool (along with multiple other laboratory tests) were made daily during a 6-day baseline period and during a subsequent treatment period using gallium nitrate. The drug was administered as a continuous infusion at a dose of 300 mg/sq m/day for durations ranging from 4-7 days.
# [3] = tested on: bone cells (particularly osteoclasts); assay: histology of cultured rat bones (toxicity to bone cells); format: cell-based
# From the text: Samples of cultured rat bones used in experiments previously described herein were fixed, decalcified and stained with hematoxylin and eosin. Histologic sections were examined by light microscopy.
# [4] = tested on: kidney; assay: clinical toxicity of gallium (kidney damage, long-term infusion); format: in vivo, patients; conditions: printed 22+ months
# From the text: as §1
# [5] = tested on: animal and human tumors; conditions: certain animal and human tumors; Warrell 1983, Adamson 1975; cited from earlier work
# [6] = resorption of devitalized bone particles from treated rats; conditions: particles from treated rats vs controls
# From the text: Devitalized bone particles (i.e. bones containing only mineral and matrix without any cellular component) were studied.
# [7] = tested on: cancer-related hypercalcemia; assay: treatment of cancer-related hypercalcemia with gallium nitrate; format: in vivo, patients; conditions: for Serum calcium, Post-Treatment: 100 mg/sq m/d × 5 d; for Total Serum Calcium, Post-Treatment: 200 mg/sq m/d × 5-7 d
# Protocol: Summary: In the initial study, gallium nitrate was used for the treatment of 10 patients with cancer-related hypercalcemia. The daily dose of drug was 200 mg/sq m administered as a continuous infusion for durations ranging from 5-7 days. The diagnoses of this patient population and the change in total serum calcium concentration in response to this therapy are presented in Table 4a.
# The subsequent increase of their disease was not accompanied by an increase in serum calcium which indicates a persistent control of the metabolic problem despite lack of control of the underlying cancer. All other patients who received the drug manifested progressive cancer despite control of the hypercalcemia. […] In a subsequent study, we further reduced the daily dose of gallium nitrate to 100 mg/sq m administered for 5 days. At a lower dose, 5 of 8 patients were normalized (Table 4b). These preliminary clinical results reflect our preclinical studies previously detailed, namely that there exists a distinct dose-response relation to the anti-calcium effect (Warrell, R. P. Jr, Bockman, R. S. et al, J. Clin. Invest. 73:1487 (1984 )).
# [8] = intravenous infusion, clinical dose; Kelsen et al 1980; cited from earlier work
# [9] = tested on: bone mineral (metaphysis); assay: gallium incorporation into bone mineral, X-ray diffraction; format: in vivo, rats
# From the text: Conceivably, gallium promotes or stabilizes crystal structure to produce matrix with more crystalline hydroxyapatite, or the drug promotes growth rather than dissolution of smaller crystallites.
# [10] = oral absorption and excretion of gallium nitrate in the dog; format: in vivo; conditions: for plasma gallium concentration: single oral dose 1200 mg by gavage
# Protocol: To evaluate the oral absorption and excretion of gallium nitrate, a concentrated solution of the drug was administered to a dog by oral gavage (total dose=1200 mg). Sequential plasma samples and the next 24 hour urinary volume were collected and assayed for gallium concentration by a flameless atomic absorption sprectrophotometer (Kelsen, D. P. et al, Cancer 46:2009, 1980).
# The subsequent 24 hour urine volume was 183 ml and it contained a total amount of 1.13 mg of elemental gallium. Assuming similar patterns of excretion in humans and dogs, it is estimated that approximately 0.5-2% of an orally administered dose is absorbed and excreted into the urine.
# [11] = tested on: kidney; conditions: Leyland-Jones et al 1983; cited from earlier work
# [12] = 4 patients, continuous infusion 300 mg/sq m/day, 4-7 days
smiles,measurement,setting,value
O=[N+]([O-])[O-].O=[N+]([O-])[O-].O=[N+]([O-])[O-].[Ga+3] [gallium nitrate],urine OH--Proline,[1]; day 8,19.0 mg/24 h
same,urine Calcium,[1]; day 8,97 mg/24 h
same,urine Phosphorus,[1]; day 8,419 mg/24 h
same,Urine Volume,[1]; day 8,3225 ml/24 h
same,amount of calcium and hydroxyproline excretion,[1]; myeloma patient,marked decrease
same,bone pain,[1]; myeloma patient,substantial decrease in bone pain
same,effect upon the underlying disease,[1]; myeloma patient,no effect upon the underlying disease
same,requirement for narcotics,[1]; myeloma patient,reduced requirement for narcotics
same,urine OH--Proline,[1]; treatment day 1,76.0 mg/24 h
same,urine Calcium,[1]; treatment day 1,502 mg/24 h
same,urine Phosphorus,[1]; treatment day 1,567 mg/24 h
same,Urine Volume,[1]; treatment day 1,4365 ml/24 h
same,urine OH--Proline,[1]; treatment day 4,23.9 mg/24 h
same,urine Calcium,[1]; treatment day 4,239 mg/24 h
same,urine Phosphorus,[1]; treatment day 4,607 mg/24 h
same,Urine Volume,[1]; treatment day 4,3620 ml/24 h
same,calcium excretion relative to baseline,[2]; [12],no significant increase in calcium excretion
same,total serum calcium concentration,[2]; [12],reduced by the gallium infusion
same,dose for anti bone-resorptive effects as share of the anticancer dose,[2]; of the anticancer dose,25-50%
same,urinary calcium excretion,[2]; patients receiving gallium nitrate,decreased urinary calcium excretion
same,calcium balance,[2]; patients while receiving the drug,remained in positive calcium balance
same,lethal toxicity to bone cells,[3]; pharmacologic concentrations,do not cause lethal toxicity to bone cells
same,cellular components (histology),"[3]; pharmacologic concentrations, 72 hrs, compared with mithramycin-treated bones",normal cellular components
same,bone cell morphology,"[3]; relative to untreated control bones, 72 hrs",no differences in bone cell morphology
same,duration of intermittent high-dose infusions without serious toxicity,[4],≥ 22 months
same,anticancer activity,[5],modest anticancer activity
same,susceptibility of devitalized bone particles to resorption,[6],significantly less susceptible to resorption than controls
same,patients normalized,[7]; 100 mg/sq m for 5 days,5 of 8
same,"Serum calcium, Post-Treatment","[7]; Patient 1, Breast, pre-treatment 13.9",11.3 mg/dL
same,"Serum calcium, Post-Treatment","[7]; Patient 2, Anus, pre-treatment 12.7",6.3 mg/dL
same,"Serum calcium, Post-Treatment","[7]; Patient 3, Kidney, pre-treatment 14.3",12.0 mg/dL
same,"Serum calcium, Post-Treatment","[7]; Patient 4, Breast, pre-treatment 14.5",8.7 mg/dL
same,"Serum calcium, Post-Treatment","[7]; Patient 5, Pancreas, pre-treatment 14.6",10.0 mg/dL
same,"Serum calcium, Post-Treatment","[7]; Patient 6, Myeloma, pre-treatment 15.0",13.7 mg/dL
same,"Serum calcium, Post-Treatment","[7]; Patient 7, Lung, pre-treatment 13.0",10.8 mg/dL
same,"Serum calcium, Post-Treatment","[7]; Patient 8, Breast, pre-treatment 17.0",9.0 mg/dL
same,response (serum calcium concentration),"[7]; 200 mg/sq m/d continuous infusion 5-7 days, 10 patients",all patients responded to this treatment by a reduction in serum calcium concentration to normal (and frequently sub-normal) values
same,"Total Serum Calcium, Post-Treatment","[7]; Patient 1, Breast, pre-treatment 13.8",8.9 mg/dL
same,"Total Serum Calcium, Post-Treatment","[7]; Patient 2, Breast, pre-treatment 15.2",8.5 mg/dL
same,"Total Serum Calcium, Post-Treatment","[7]; Patient 3, Lymphoma, pre-treatment 15.6",6.6 mg/dL
same,"Total Serum Calcium, Post-Treatment","[7]; Patient 4, Head & Neck, pre-treatment 12.3",8.5 mg/dL
same,"Total Serum Calcium, Post-Treatment","[7]; Patient 5, Breast, pre-treatment 14.4",7.7 mg/dL
same,"Total Serum Calcium, Post-Treatment","[7]; Patient 6, Lymphoma, pre-treatment 15.6",8.6 mg/dL
same,"Total Serum Calcium, Post-Treatment","[7]; Patient 7, Lung, pre-treatment 12.5",7.0 mg/dL
same,"Total Serum Calcium, Post-Treatment","[7]; Patient 8, Penis, pre-treatment 12.3",9.3 mg/dL
same,"Total Serum Calcium, Post-Treatment","[7]; Patient 9, Head & Neck, pre-treatment 13.5",7.8 mg/dL
same,"Total Serum Calcium, Post-Treatment","[7]; Patient 10, Lung, pre-treatment 13.7",9.3 mg/dL
same,size of a lymphomatous mass,"[7]; 200 mg/sq m/d, Patient 5, followed by progression and death",transient decrease in the size of a lymphomatous mass
same,anti-cancer effect associated with hypocalcemic effect,"[7]; 200 mg/sq m/d, all patients except Patient 5",not associated with any anti-cancer effect
same,steady-state plasma gallium concentration,[8],0.9 to 2.0 µg/mL
same,crystal size in metaphyseal-derived particles (X-ray diffraction),[9]; gallium treated animals vs controls,marked increase in crystal size
same,gallium incorporation into bone,[9]; rats treated with gallium nitrate,incorporated into the bone metaphysis where more active bone mineral turnover was occurring and into the metabolically more active crystalline pool
same,oral gallium nitrate dose estimated to achieve effective plasma levels,"[10]; 70 kg human, extrapolated from dog data",0.5-20 gms
same,toxic reaction,"[10]; dog, oral 1200 mg",no toxic reaction
same,total amount of elemental gallium in urine,"[10]; dog, oral 1200 mg, 24 hour urine",1.13 mg
same,plasma gallium concentration,"[10]; dog, 0 hrs",0 µg/mL
same,plasma gallium concentration,"[10]; dog, 0.25 hrs",0.5 µg/mL
same,plasma gallium concentration,"[10]; dog, 0.5 hrs",1.25 µg/mL
same,plasma gallium concentration,"[10]; dog, 1 hr",1.37 µg/mL
same,plasma gallium concentration,"[10]; dog, 2 hrs",2.75 µg/mL
same,plasma gallium concentration,"[10]; dog, 4 hrs",2.0 µg/mL
same,plasma gallium concentration,"[10]; dog, 24 hrs",0.75 µg/mL
same,nephrotoxicity,[11],generally reversible and that it is not cumulative
